# Assay results from patent publication US20080058373A1, “Compositions and Methods for Treating or Preventing Glaucoma or Progression Thereof” (priority 2006, published 2008).
# Values joined by “and” are separate entries in the source; they are usually repeats but may differ in a detail not shown here. Equal entries are not always repeated.
# Tests used:
# [1] = system: New Zealand White rabbits; experiment: Intraocular pressure (IOP) in rabbits, topical dosing four times daily; type: in vivo; conditions: P.M. readings
# Method: Seventy-five rabbits underwent two weeks of IOP training to condition them for IOP measurement. IOP was determined for both eyes of each animal using a Medtronic Solan, Model 30 classic pneumatonometer. Proparacaine hydrochloride 0.5% (1 drop) was delivered to each eye prior to IOP measurement. A two-point diurnal curve was established: IOP was recorded on Monday, Wednesday, and Friday of each week, at 8 a.m. and 12 p.m., with a ±1 hour range for each of these times. The time of the measurements was recorded.
# On Days 1-31, animals received daily topical doses of the appropriate test article into the right eye. Animals were dosed four times per day, with doses administered 2 hours apart. Doses were administered using a calibrated 50-μL pipette. The eyelids were held close for 10 seconds immediately following dosing. The time of each dose administration was recorded.
# Intraocular pressure (“IOP”) was determined for both eyes of each animal on Days 3, 5, 10, 12, 16, 18, 22, 24, 26, 30, and 32. IOP was evaluated with a Medtronic Solan, Model 30 classic pneumatonometer. Proparacaine hydrochloride 0.5% (1 drop) was delivered to each eye prior to IOP measurement. IOP was measured on Monday, Wednesday, and Friday of each week. A two-point diurnal curve was established: IOP was recorded at 8 a.m. and 12 p.m. on Day 3, and at 8 a.m. and 2 p.m. on later days, with a ±1 hour range for each of these times. The time of the measurements was recorded.
# Descriptive statistics were prepared for IOP data of each treatment group (left and right eyes separately) at each measurement interval. The statistics included the number of observations (“N”), mean, standard deviation (“STD”), and standard error (“SEM”). Statistical analyses were conducted on IOP results using Statistical Analysis Systems (SAS Institute, Inc., Cary, N.C., V8.0). Parameters were evaluated using analysis of variance/GLM Procedure followed by Tukey's Standardized Range Test (Tukey, 1985) for post hoc comparisons of group means. The level of significance was set at a probability of p<0.05 for all statistical procedures. Group IOP means were compared at each interval, with left and right eyes compared separately.
# [2] = system: rabbit eye (anterior chamber paracentesis); experiment: Pupillary diameter measurement, rabbit paracentesis model; type: in vivo; conditions: for Pupillary diameter T1: −180 min: 50 μl drops, −180 min (basal); for Pupillary diameter T1: −180 min / Pupillary diameter T2: −5 min / Pupillary diameter T3: +115 min: single eyes, listed as BOL; for Pupillary diameter T2: −5 min: 5 min before the first paracentesis; for Pupillary diameter T3: +115 min: 5 min before the second paracentesis; for Pupillary diameter Mean Δ(T3 − T1): group mean, n=8 eyes
# Method: Each rabbit was placed in a restraint device and tagged with the alphanumeric code. The formulations were instilled (50 μl) into the conjunctival sac of both eyes 180, 120, 90 and 30 min before the first paracentesis; then 15, 30, 90 min after the first paracentesis. To perform the first paracentesis the animals were anaesthetized by intravenous injection of 5 mg/kg Zoletil® (Virbac; 2.5 mg/kg tiletamine HCl and 2.5 mg/kg zolazepam HCl) and one drop of local anesthetic (Novesina®, Novartis) was administered to the eye. Anterior chamber paracentesis was performed with a 26 G needle attached to a tuberculin syringe; the needle was introduced into the anterior chamber through the cornea, taking care not to damage the tissues. Two hours after the first paracentesis, the animals were sacrificed with 0.4 ml Tanax® (Intervet International B.V.) and the second paracentesis was performed. About 100 μl of aqueous humor were removed at the second paracentesis. Aqueous humor was immediately split in four aliquots and stored at −80° C. until analysis. Then both eyes were enucleated and the iris-ciliary body was carefully excised, placed in polypropylene tubes, and stored at −80° C. until analysis.
# The pupillary diameter of both eyes was measured with a Castroviejo caliper 180 min and 5 min before the first paracentesis and 5 min before the second paracentesis.
smiles,measurement,setting,value
Cc1ccc2c(NCC(O)(CC(C)(C)c3cc(F)cc4c3OCC4)C(F)(F)F)cccc2n1 (centres unmarked),Intraocular Pressure (MEAN),"[1]; treated right eyes, Day 3, 10 mg/g (Group B)",23.1 mmHg
same,Intraocular Pressure (MEAN),"[1]; treated right eyes, Day 5, 1 mg/g (Group D)",25.5 mmHg
same,Intraocular Pressure (MEAN),"[1]; treated right eyes, Day 5, 5 mg/g (Group C)",24.8 mmHg
same,Intraocular Pressure (MEAN),"[1]; treated right eyes, Day 5, 10 mg/g (Group B)",25.7 mmHg
same,Intraocular Pressure (MEAN),"[1]; treated right eyes, Day 10, 1 mg/g (Group D)",25.3 mmHg
same,Intraocular Pressure (MEAN),"[1]; treated right eyes, Day 10, 5 mg/g (Group C)",25.6 mmHg
same,Intraocular Pressure (MEAN),"[1]; treated right eyes, Day 10, 10 mg/g (Group B)",24.3 mmHg
same,Intraocular Pressure (MEAN),"[1]; treated right eyes, Day 12, 1 mg/g (Group D)",24.0 mmHg
same,Intraocular Pressure (MEAN),"[1]; treated right eyes, Day 12, 5 mg/g (Group C)",23.4 mmHg
same,Intraocular Pressure (MEAN),"[1]; treated right eyes, Day 12, 10 mg/g (Group B)",23.8 mmHg
same,Intraocular Pressure (MEAN),"[1]; treated right eyes, Day 16, 1 mg/g (Group D)",22.0 mmHg
same,Intraocular Pressure (MEAN),"[1]; treated right eyes, Day 16, 5 mg/g (Group C)",21.4 mmHg
same,Intraocular Pressure (MEAN),"[1]; treated right eyes, Day 16, 10 mg/g (Group B)",21.6 mmHg
same,Intraocular Pressure (MEAN),"[1]; treated right eyes, Day 18, 1 mg/g (Group D)",23.1 mmHg
same,Intraocular Pressure (MEAN),"[1]; treated right eyes, Day 18, 5 mg/g (Group C)",21.6 mmHg
same,Intraocular Pressure (MEAN),"[1]; treated right eyes, Day 18, 10 mg/g (Group B)",22.5 mmHg
same,Intraocular Pressure (MEAN),"[1]; treated right eyes, Day 22, 1 mg/g (Group D)",22.5 mmHg
same,Intraocular Pressure (MEAN),"[1]; treated right eyes, Day 22, 5 mg/g (Group C)",22.8 mmHg
same,Intraocular Pressure (MEAN),"[1]; treated right eyes, Day 22, 10 mg/g (Group B)",23.1 mmHg
same,Intraocular Pressure (MEAN),"[1]; treated right eyes, Day 24, 1 mg/g (Group D)",23.6 mmHg
same,Intraocular Pressure (MEAN),"[1]; treated right eyes, Day 24, 5 mg/g (Group C)",23.4 mmHg
same,Intraocular Pressure (MEAN),"[1]; treated right eyes, Day 24, 10 mg/g (Group B)",22.8 mmHg
same,Intraocular Pressure (MEAN),"[1]; treated right eyes, Day 26, 1 mg/g (Group D)",22.6 mmHg
same,Intraocular Pressure (MEAN),"[1]; treated right eyes, Day 26, 5 mg/g (Group C)",22.2 mmHg
same,Intraocular Pressure (MEAN),"[1]; treated right eyes, Day 26, 10 mg/g (Group B)",20.9 mmHg
same,Intraocular Pressure (MEAN),"[1]; treated right eyes, Day 30, 10 mg/g (Group B)",22.4 mmHg
same,Intraocular Pressure (MEAN),"[1]; untreated left eyes, Day 3, 1 mg/g (Group D)",25.0 mmHg
same,Intraocular Pressure (MEAN),"[1]; untreated left eyes, Day 3, 5 mg/g (Group C)",23.9 mmHg
same,Intraocular Pressure (MEAN),"[1]; untreated left eyes, Day 3, 10 mg/g (Group B)",23.3 mmHg
same,Intraocular Pressure (MEAN),"[1]; untreated left eyes, Day 5, 1 mg/g (Group D)",24.7 mmHg
same,Intraocular Pressure (MEAN),"[1]; untreated left eyes, Day 5, 5 mg/g (Group C)",24.8 mmHg
same,Intraocular Pressure (MEAN),"[1]; untreated left eyes, Day 5, 10 mg/g (Group B)",25.2 mmHg
same,Intraocular Pressure (MEAN),"[1]; untreated left eyes, Day 10, 1 mg/g (Group D)",24.9 mmHg
same,Intraocular Pressure (MEAN),"[1]; untreated left eyes, Day 10, 5 mg/g (Group C)",24.6 mmHg
same,Intraocular Pressure (MEAN),"[1]; untreated left eyes, Day 10, 10 mg/g (Group B)",23.5 mmHg
same,Intraocular Pressure (MEAN),"[1]; untreated left eyes, Day 12, 1 mg/g (Group D)",23.7 mmHg
same,Intraocular Pressure (MEAN),"[1]; untreated left eyes, Day 12, 5 mg/g (Group C)",23.3 mmHg
same,Intraocular Pressure (MEAN),"[1]; untreated left eyes, Day 12, 10 mg/g (Group B)",24.1 mmHg
same,Intraocular Pressure (MEAN),"[1]; untreated left eyes, Day 16, 1 mg/g (Group D)",21.9 mmHg
same,Intraocular Pressure (MEAN),"[1]; untreated left eyes, Day 16, 5 mg/g (Group C)",20.4 mmHg
same,Intraocular Pressure (MEAN),"[1]; untreated left eyes, Day 16, 10 mg/g (Group B)",21.4 mmHg
same,Intraocular Pressure (MEAN),"[1]; untreated left eyes, Day 18, 1 mg/g (Group D)",22.7 mmHg
same,Intraocular Pressure (MEAN),"[1]; untreated left eyes, Day 18, 5 mg/g (Group C)",21.9 mmHg
same,Intraocular Pressure (MEAN),"[1]; untreated left eyes, Day 18, 10 mg/g (Group B)",22.1 mmHg
same,Intraocular Pressure (MEAN),"[1]; untreated left eyes, Day 22, 1 mg/g (Group D)",22.1 mmHg
same,Intraocular Pressure (MEAN),"[1]; untreated left eyes, Day 22, 5 mg/g (Group C)",22.1 mmHg
same,Intraocular Pressure (MEAN),"[1]; untreated left eyes, Day 22, 10 mg/g (Group B)",22.6 mmHg
same,Intraocular Pressure (MEAN),"[1]; untreated left eyes, Day 24, 1 mg/g (Group D)",22.9 mmHg
same,Intraocular Pressure (MEAN),"[1]; untreated left eyes, Day 24, 5 mg/g (Group C)",22.2 mmHg
same,Intraocular Pressure (MEAN),"[1]; untreated left eyes, Day 24, 10 mg/g (Group B)",22.8 mmHg
same,Intraocular Pressure (MEAN),"[1]; untreated left eyes, Day 26, 1 mg/g (Group D)",22.1 mmHg
same,Intraocular Pressure (MEAN),"[1]; untreated left eyes, Day 26, 5 mg/g (Group C)",22.3 mmHg
same,Intraocular Pressure (MEAN),"[1]; untreated left eyes, Day 26, 10 mg/g (Group B)",21.4 mmHg
same,Intraocular Pressure (MEAN),"[1]; untreated left eyes, Day 30, 1 mg/g (Group D)",21.3 mmHg
same,Intraocular Pressure (MEAN),"[1]; untreated left eyes, Day 30, 5 mg/g (Group C)",20.9 mmHg
same,Intraocular Pressure (MEAN),"[1]; untreated left eyes, Day 30, 10 mg/g (Group B)",21.7 mmHg
same,Intraocular Pressure (MEAN),"[1]; untreated left eyes, Day 32, 1 mg/g (Group D)",21.9 mmHg
same,Intraocular Pressure (MEAN),"[1]; untreated left eyes, Day 32, 5 mg/g (Group C)",21.5 mmHg
same,Intraocular Pressure (MEAN),"[1]; untreated left eyes, Day 32, 10 mg/g (Group B)",22.6 mmHg
same,Intraocular Pressure (MEAN),"[1]; untreated left eyes, Pre-Study, 1 mg/g (Group D)",24.2 mmHg
same,Intraocular Pressure (MEAN),"[1]; untreated left eyes, Pre-Study, 5 mg/g (Group C)",24.4 mmHg
same,Intraocular Pressure (MEAN),"[1]; untreated left eyes, Pre-Study, 10 mg/g (Group B)",23.9 mmHg
same,Pupillary diameter T1: −180 min,[2]; 0.1% topical,6.5 mm and 7.0 mm and 7.5 mm
same,Pupillary diameter T2: −5 min,[2]; 0.1% topical,6.5 mm and 7.0 mm and 7.5 mm
same,Pupillary diameter T3: +115 min,[2]; 0.1% topical,5.0 mm and 6.0 mm and 6.5 mm and 5.5 mm
same,Pupillary diameter Mean Δ(T3 − T1),[2]; 0.1% topical,−1.1 mm
same,Pupillary diameter T1: −180 min,[2]; 0.5% topical,8.0 mm and 7.0 mm and 7.5 mm
same,Pupillary diameter T2: −5 min,[2]; 0.5% topical,8.0 mm and 7.0 mm and 7.5 mm
same,Pupillary diameter T3: +115 min,[2]; 0.5% topical,6.5 mm and 6.0 mm and 7.0 mm
same,Pupillary diameter Mean Δ(T3 − T1),[2]; 0.5% topical,−1.0 mm
same,Pupillary diameter T1: −180 min,[2]; 1% topical,6.0 mm and 6.5 mm
same,Pupillary diameter T2: −5 min,[2]; 1% topical,6.0 mm and 6.5 mm and 7.0 mm
same,Pupillary diameter T3: +115 min,[2]; 1% topical,5.5 mm and 5.0 mm and 6.0 mm
same,Pupillary diameter Mean Δ(T3 − T1),[2]; 1% topical,−0.9 mm
